Assay results: patent US7202274B2, “Cyclic hemiacetal derivative and use thereof” (Senju Pharmaceutical Co., Ltd., priority 2002, dated 2007)
Read-outs that look alike come from different tables or passages of the source. Values belong to the compound of their own block, whether it stands above or below them.

Columns and labels:
N1E-115 cells = assay type: cell-based; conditions: mouse, 24 h
Experimental: Mouse neuroblastoma derived cell lines (N1E-115 cells) were seeded in a 96 well microplate at 10^4 per well and cultured overnight in Dulbecco's Modified Eagle's Minimum Essential Medium (100 μL, DMEM, GIBCO) containing 10% FBS at 37° C. under 5% CO2. The whole amount of the culture solution was removed, and the medium was changed to various concentrations of a test drug solution (100 μL, prepared by dissolving Compound 1 in 99.5% ethanol and adjusting final concentration of ethanol to 1% with DMEM) and the cells were cultured for 24 hr. The culture supernatant and cells were separately recovered. The cells were ultrasonicated to give soluble fractions and the lactic dehydrogenase (LDH) activity of each of them was determined with an LDH cytotoxicity detection kit (MK401, manufactured by Takara Bio Inc.), and an LDH release rate was determined by the following formula and taken as a proportion of the cells suffered from cytotoxicity. LDH release rate (%)={LDH activity of culture supernatant/(LDH activity of culture supernatant+intracellular LDH activity)}×100
LD50 was determined from the LDH release rate at each test drug concentration by LD50/ED50 probit method of SAS preclinical package (Ver. 6.12).

[1] = Aqueous humor penetration test; assay type: in vivo, Japanese white rabbits; conditions: rabbit
Experimental: The suspension of Formulation Example 4 to be mentioned later was instilled by 50 μL into the both eyes of Japanese white rabbits (body weight about 2 kg, purchased from Fukusaki Rabbit Union). At 0.25, 0.5, 1 and 3 hr after the instillation, the rabbits were sacrificed with pentobarbital and aqueous humor was recovered. Using a column switching system HPLC, the concentration of Compound 1 in the aqueous humor was measured.

SMILES: CC(C)C[C@H](NC(=S)Nc1ccccc1)C(=O)N[C@H]1CCOC1O (stereo partly drawn) [Compound 1, (2S)-4-methyl-2-(((phenylamino)thioxomethyl)amino)-N-((3S)-tetrahydro-2-hydroxy-3-furanyl)pentanamide]
LDH release rate (N1E-115 cells; 0.1 mM): 9.32 ± 0.07% | LDH release rate (N1E-115 cells; 0.5 mM): 11.05 ± 0.72% | LDH release rate (N1E-115 cells; 1 mM): 14.22 ± 1.14% | LDH release rate (N1E-115 cells; 2 mM): 47.73 ± 1.66% | AUC ([1]; Japanese white, aqueous humor, topical, 50 μL per eye, 0-3 hr after the instillation of the suspension of Formulation Example 4, read-out: area under drug concentration-time curve (AUC) of amount penetrated to aqueous humor): 4.79 µM·h | Cmax ([1]; Japanese white, aqueous humor, topical, 50 μL per eye, 50 μL instillation of the suspension of Formulation Example 4, read-out: concentration in the aqueous humor, maximum (Cmax)): 2900 nM | time at which concentration in the aqueous humor reached the maximum ([1]; 50 μL instillation of the suspension of Formulation Example 4): 0.5 h

melting point: 51.3 to 52.9 °C
SMILES: CCC(C)[C@H](NC(=S)Nc1ccccc1)C(=O)N[C@H]1CCOC1O (stereo partly drawn) [Compound 2, (2S)-3-methyl-2-(((phenylamino)thioxomethyl)amino)-N-((3S)-tetrahydro-2-hydroxy-3-furanyl)pentanamide]

melting point: 57.9 to 58.9 °C
SMILES: Cc1ccccc1NC(=S)N[C@@H](CC(C)C)C(=O)N[C@H]1CCOC1O (stereo partly drawn) [Compound 9, (2S)-4-methyl-2-((((2-methylphenyl)amino)thioxomethyl)amino)-N-((3S)-tetrahydro-2-hydroxy-3-furanyl)pentanamide]

melting point: 61.4 to 61.9 °C
SMILES: Cc1cccc(NC(=S)N[C@@H](CC(C)C)C(=O)N[C@H]2CCOC2O)c1 (stereo partly drawn) [Compound 10, (2S)-4-methyl-2-((((3-methylphenyl)amino)thioxomethyl)amino)-N-((3S)-tetrahydro-2-hydroxy-3-furanyl)pentanamide]
